# Test results as given in patent US20190055231A1, “BACE1 INHIBITORS” (Hoffmann-La Roche Inc., priority 2016, published 2019).
# Test system: Aβ40 in brain of wild-type mice
# Test: Mouse acute in vivo model (inhibition of Aβ40 in brain of wild-type mice)
# Conditions: 4 h post dose
# Description: Mouse Acute In Vivo Model (Inhibition of Aβ40 in Brain of Wild-Type Mice)
# Single Dose Efficacy in Mice
# The mouse single dose efficacy was measured in brain homogenate from C57Bl/6J wildtype mice after DEA extraction as described in H. Hilpert et al., J. Med. Chem. 2013, 56, 3980-3995 (dx.doi.org/10.1021/jm400225m).
# Aβ 40 concentration was determined after solid phase extraction as described above and following a modified protocol from Perkin-Elmer with a commercially available antibody against the N-terminal part of rat Aβ (252Q6, Invitrogen cat. No. AMB0062) and an in-house C-terminal specific anti-Aβ40 antibody (BAP-24, Brockhaus M. et al., J. Neuroreport, 1998, 9:1481-1486) bound to acceptor beads (PerkinElmer, Cat. 6772002). 20 μl analyte per well (reconstituted extracts or standard) were loaded to a White Optiplate-96 (Perkin-Elmer, Cat#6005290). Then, a mixture of biotinylated BAP24 antibody (1:2000 diluted at approximately 1 nM final concentration) and antibody 252Q6 bound to AlphaLISA acceptor beads (Perkin-Elmer cat. No. 6772002 (1:100 diluted, 10 ug/mL final concentration) in 1× AlphaLISA buffer (Perkin-Elmer, AL000F) was added. After 1 hour room temperature incubation in the dark, 20 uL of a streptavidin coated donor beads dilution (40 μg/mL) were added and incubated for 30 minutes in the dark. Light emission at 615 nm was recorded using an EnVision AlphaScreen Reader (Perkin-Elmer). Levels of Aβ40 were calculated as percentage of the baseline samples from non-treated animals.
# Aβ40 lowering was determined after oral administration in wild-type mice (C57Bl/6J mice, n=3-4) 4 h post dosing. Wild-type mice were used as they have a normal physiological level of APP expression and are thus expected to provide a better physiological model for Aβ-peptide production than APP-transgenic organisms. In vivo efficacy is a key factor for appropriate drug candidates, being more relevant than in vitro activities.
smiles,measurement,setting,value
"Cc1cc(C#N)cnc1C(=O)Nc1ccc(F)c([C@@]2(C)N=C(N)O[C@H](C(F)(F)F)[C@@H]2F)n1 [Example 1, N-(6-((4R,5R,6S)-2-amino-5-fluoro-4-methyl-6-(trifluoromethyl)-5,6-dihydro-4H-1,3-oxazin-4-yl)-5-fluoropyridin-2-yl)-5-cyano-3-methylpicolinamide]",Brain Aβ-lowering 3 mg/kg,single p.o. dose 3 mg/kg,58%
same,Brain Aβ-lowering 10 mg/kg,single p.o. dose 10 mg/kg,92%
